Several values for one entry are separate records, joined by “and”; a condition that tells them apart may be missing. Equal values may be shown once.
Legend:
[1] = In vitro stability in PBS saline, 20% EtOH solution and rat serum (radio-HPLC); assay type: physicochemical; settings: 4 h at 37°C
Procedure: The in vitro stability of [^18F]3 was performed in PBS saline, 20% EtOH solution, and rat serum. In general, a solution of [^18F]3 (50 µL, approximately 20 KBq) was added to the PBS saline (2 mL), 20% EtOH solution (2 mL), and rat serum (2 mL), and these solutions were suspended in a water bath under 37°C for […]. Samples from PBS saline and 20% EtOH solution were loaded into the analytical radio-HPLC for the detection of RCP at designated time points (0, 1, 2, and 4 h), with the same condition described previously. The samples from the rat serum were added the same volume of acetonitrile to deposit the plasma protein, and the supernatant obtained by centrifugation (×12,000 r/min, 5 min) was analyzed at corresponding time points.

[2] = Biodistribution in normal Kunming mice; assay type: in vivo; settings: for Biodistribution, Intestine, single mice: individual animals; for Biodistribution, Blood / Biodistribution, Bone / Biodistribution, Brain / Biodistribution, Heart / Biodistribution, Intestine / Biodistribution, Kidney / Biodistribution, Lungs / Biodistribution, Muscle / Biodistribution, Spleen / Biodistribution, Stomach / Biodistribution, Liver: mean (SD), n = 5
Procedure: Normal Kunming mice (4 weeks, 20–25 g) were injected intravenously with about 740 KBq of [^18F]3 in 100 µL of PBS saline solution via the tail vein. All subjects were grouped by time points (n = 5). At designated time points, all subjects were sacrificed, and the organs and tissues were harvested, weighted, and counted in a PerkinElmer Wizard 2470 gamma counter. All the counts obtained from the gamma counter were decay-corrected and used to calculate the tissue biodistribution data, which is presented as the percentage of injected dose per gram of organ (%ID/g).

[3] = Micro-PET/CT imaging, organ SUV in tumor-bearing nude mice; assay type: in vivo, BALB/c nude mice
Procedure: BALB/c nude mice used in this study were obtained from the Animal Center of Sichuan University. Tumor-bearing mouse models were established by the subcutaneous injection of 100 µL of PBS suspension containing approximately 1*10^6 tumor cells to the body side of the subjects. The tumor volume was monitored every day, and the tumor-bearing mice were ready for imaging once the tumor volume reached 0.5 mm^3 (tumor volume can be calculated by this equation: Volume = 0.5 * long tail * short tail *short tail). Micro-PET/CT imaging studies were performed on the IRIS Micro-PET/CT system (Inviscan SAS, France). Tumor-bearing mice were injected with approximately 11.2–14.8 MBq of [^18F]3 (200 µL) via the tail vein under anaesthetization by isoflurane. Static PET images were obtained at designated time points and were reconstructed with a 3D-OSEM algorithm using a Monte Carlo-based accurate detector model. Then, 170 sec-CT acquisition was conducted with 50 kV, 1 mA X-ray output for attenuation correction and anatomical orientation. ROIs (regions of interest) were drawn on the lung, kidney, liver, and tumor by OsiriX software. SUV (standardized uptake value) of the ROIs was directly obtained from OsiriX for each subject according to this formula: SUV = Voxal value (Bq/mL) * Body weight (kg)/(Decay corrected Dose (Bq) * 1,000 (g/kg)).
BALB/c nude mice used in this study were obtained from the Animal Center of Sichuan university. Tumor-bearing mice model were established by the subcutaneous injection of 100 µL of PBS suspension containing approximately 1*10^6 tumor cells to the body side of the subjects. The tumor volume was monitored every day and the tumor-bearing mice were ready for imaging once the tumor volume reach 0.5 mm^3 (tumor volume can be calculated by this equation: Volume = 0.5 * long tail * short tail *short tail). Micro-PET/CT imaging studies were performed on the IRIS Micro-PET/CT system (Inviscan SAS, France). Tumor-bearing mice were injected with approximately 11.2-14.8 MBq of [^18F]3 (200 µL) via tail vein under anaesthetization by isoflurane. Static PET images were obtained at designated time points and were reconstructed with a 3D-OSEM algorithm using a Monte-Carlo based accurate detector model. A 170 sec-CT acquisition was conducted with 50 kV, 1 mA X-ray output for attenuation correction and anatomical orientation. ROIs (regions of interest) were drawn on lung, kidney, liver and tumor by Osirix software. SUV (standardized uptake value) of the ROIs was directly obtained from Osirix for each subject according to this formula: SUV = Voxal value (Bq/mL) * Body weight (kg)/(Decay corrected Dose (Bq) * 1000 (g/kg)).

SMILES: N#C[C@@H]1CC(F)(F)CN1C(=O)CNC(=O)c1ccnc2ccc([18F])cc12 [[^18F]3]
- intact [^18F]3 [1]: over 90%
- Biodistribution, Intestine, single mice ([2]; 5 min post-injection (time inferred from the means)): 10.34 %ID/g and 11.05 %ID/g and 10.3 %ID/g and 22.06 %ID/g and 16.22 %ID/g
- Biodistribution, Blood ([2]; 5 min post-injection): 12.96 ± 2.03 %ID/g
- Biodistribution, Bone ([2]; 5 min post-injection): 1.86 ± 0.54 %ID/g
- Biodistribution, Brain ([2]; 5 min post-injection): 0.80 ± 0.29 %ID/g
- Biodistribution, Heart ([2]; 5 min post-injection): 11.00 ± 1.64 %ID/g
- Biodistribution, Intestine ([2]; 5 min post-injection): 13.99 ± 4.60 %ID/g
- Biodistribution, Kidney ([2]; 5 min post-injection): 22.59 ± 5.74 %ID/g
- Biodistribution, Lungs ([2]; 5 min post-injection): 11.36 ± 1.89 %ID/g
- Biodistribution, Muscle ([2]; 5 min post-injection): 8.02 ± 1.34 %ID/g
- Biodistribution, Spleen ([2]; 5 min post-injection): 8.71 ± 1.50 %ID/g
- Biodistribution, Stomach ([2]; 5 min post-injection): 7.82 ± 0.86 %ID/g
- Biodistribution, Intestine, single mice ([2]; 15 min post-injection (time inferred from the means)): 27.17 %ID/g and 17.59 %ID/g and 22.86 %ID/g and 23.43 %ID/g
- Biodistribution, Blood ([2]; 15 min post-injection): 6.90 ± 1.13 %ID/g
- Biodistribution, Bone ([2]; 15 min post-injection): 1.59 ± 0.51 %ID/g
- Biodistribution, Brain ([2]; 15 min post-injection): 0.61 ± 0.25 %ID/g
- Biodistribution, Heart ([2]; 15 min post-injection): 5.71 ± 1.12 %ID/g
- Biodistribution, Intestine ([2]; 15 min post-injection): 20.10 ± 6.14 %ID/g
- Biodistribution, Kidney ([2]; 15 min post-injection): 12.72 ± 3.88 %ID/g
- Biodistribution, Liver ([2]; 15 min post-injection): 27.82 ± 6.35 %ID/g
- Biodistribution, Lungs ([2]; 15 min post-injection): 6.84 ± 1.43 %ID/g
- Biodistribution, Muscle ([2]; 15 min post-injection): 5.32 ± 1.02 %ID/g
- Biodistribution, Spleen ([2]; 15 min post-injection): 4.56 ± 1.09 %ID/g
- Biodistribution, Stomach ([2]; 15 min post-injection): 6.98 ± 1.36 %ID/g
- Biodistribution, Intestine, single mice ([2]; 30 min post-injection (time inferred from the means)): 31.76 %ID/g and 22.3 %ID/g and 32.3 %ID/g and 24.86 %ID/g and 56.33 %ID/g
- Biodistribution, Blood ([2]; 30 min post-injection): 4.35 ± 0.66 %ID/g
- Biodistribution, Bone ([2]; 30 min post-injection): 1.80 ± 0.60 %ID/g
- Biodistribution, Brain ([2]; 30 min post-injection): 0.35 ± 0.10 %ID/g
- Biodistribution, Heart ([2]; 30 min post-injection): 3.53 ± 0.33 %ID/g
- Biodistribution, Intestine ([2]; 30 min post-injection): 33.51 ± 12.05 %ID/g
- Biodistribution, Kidney ([2]; 30 min post-injection): 8.48 ± 1.34 %ID/g
- Biodistribution, Liver ([2]; 30 min post-injection): 15.34 ± 2.67 %ID/g
- Biodistribution, Lungs ([2]; 30 min post-injection): 5.15 ± 1.59 %ID/g
- Biodistribution, Spleen ([2]; 30 min post-injection): 2.95 ± 0.49 %ID/g
- Biodistribution, Stomach ([2]; 30 min post-injection): 5.50 ± 1.26 %ID/g
- Biodistribution, Intestine, single mice ([2]; 60 min post-injection (time inferred from the means)): 31 %ID/g and 24.55 %ID/g and 17.85 %ID/g and 13.74 %ID/g and 9.5 %ID/g
- Biodistribution, Blood ([2]; 60 min post-injection): 2.61 ± 0.18 %ID/g
- Biodistribution, Bone ([2]; 60 min post-injection): 1.91 ± 0.33 %ID/g
- Biodistribution, Brain ([2]; 60 min post-injection): 0.20 ± 0.04 %ID/g
- Biodistribution, Heart ([2]; 60 min post-injection): 1.91 ± 0.24 %ID/g
- Biodistribution, Intestine ([2]; 60 min post-injection): 19.33 ± 7.66 %ID/g
- Biodistribution, Kidney ([2]; 60 min post-injection): 5.07 ± 0.81 %ID/g
- Biodistribution, Liver ([2]; 60 min post-injection): 9.03 ± 3.62 %ID/g
- Biodistribution, Lungs ([2]; 60 min post-injection): 2.35 ± 1.07 %ID/g
- Biodistribution, Muscle ([2]; 60 min post-injection): 2.60 ± 1.20 %ID/g
- Biodistribution, Spleen ([2]; 60 min post-injection): 1.46 ± 0.24 %ID/g
- Biodistribution, Stomach ([2]; 60 min post-injection): 2.98 ± 1.22 %ID/g
- Biodistribution, Intestine, single mice ([2]; 90 min post-injection (time inferred from the means)): 6.25 %ID/g and 12.96 %ID/g and 10.39 %ID/g and 11.77 %ID/g and 4.91 %ID/g
- Biodistribution, Intestine, single mice ([2]; 120 min post-injection (time inferred from the means)): 6.06 %ID/g and 1.76 %ID/g and 4.52 %ID/g and 2.19 %ID/g and 9.23 %ID/g
- Biodistribution, Blood ([2]; 120 min post-injection): 1.29 ± 0.28 %ID/g
- Biodistribution, Bone ([2]; 120 min post-injection): 1.65 ± 0.81 %ID/g
- Biodistribution, Brain ([2]; 120 min post-injection): 0.08 ± 0.02 %ID/g
- Biodistribution, Heart ([2]; 120 min post-injection): 0.93 ± 0.20 %ID/g
- Biodistribution, Intestine ([2]; 120 min post-injection): 4.75 ± 2.73 %ID/g
- Biodistribution, Kidney ([2]; 120 min post-injection): 2.27 ± 0.93 %ID/g
- Biodistribution, Liver ([2]; 120 min post-injection): 5.39 ± 3.36 %ID/g
- Biodistribution, Lungs ([2]; 120 min post-injection): 1.87 ± 0.49 %ID/g
- Biodistribution, Muscle ([2]; 120 min post-injection): 1.51 ± 0.48 %ID/g
- Biodistribution, Spleen ([2]; 120 min post-injection): 0.85 ± 0.13 %ID/g
- Biodistribution, Stomach ([2]; 120 min post-injection): 1.63 ± 0.51 %ID/g
- Biodistribution, Intestine, single mice ([2]; 240 min post-injection (time inferred from the means)): 7.72 %ID/g and 2.48 %ID/g and 5.26 %ID/g and 2.09 %ID/g and 6.66 %ID/g
- Biodistribution, Blood ([2]; 240 min post-injection): 0.75 ± 0.19 %ID/g
- Biodistribution, Bone ([2]; 240 min post-injection): 1.33 ± 0.30 %ID/g
- Biodistribution, Brain ([2]; 240 min post-injection): 0.04 ± 0.02 %ID/g
- Biodistribution, Heart ([2]; 240 min post-injection): 0.39 ± 0.11 %ID/g
- Biodistribution, Intestine ([2]; 240 min post-injection): 4.84 ± 2.23 %ID/g
- Biodistribution, Kidney ([2]; 240 min post-injection): 0.82 ± 0.23 %ID/g
- Biodistribution, Liver ([2]; 240 min post-injection): 2.47 ± 1.47 %ID/g
- Biodistribution, Lungs ([2]; 240 min post-injection): 0.69 ± 0.19 %ID/g
- Biodistribution, Muscle ([2]; 240 min post-injection): 0.76 ± 0.23 %ID/g
- Biodistribution, Spleen ([2]; 240 min post-injection): 0.38 ± 0.13 %ID/g
- Biodistribution, Stomach ([2]; 240 min post-injection): 1.64 ± 0.69 %ID/g
- Activity in the bone ([2]; all time points): lower than 2 %ID/g
- Radioactivity in the brain ([2]; all time points): lower than 1 %ID/g
- SUV in the liver ([3]; 15 min p.i.): about 5.0
- SUV in the kidney ([3]; 90 min p.i.): 3.0
- SUV in the bladder ([3]; end of the scan): greater than 8.0
- SUV in the liver ([3]; end of the scan (90 min)): 2.0
- SUV in the kidney ([3]; initial): about 5.0
- SUV in the brain ([3]; mouse, in vivo): less than 0.3
